The values that follow come from patent publication US11638425B2, “Agent for inducing stress tolerance in plants” (Menicon Co. Ltd., priority 2017, dated 2023).

Structures are written as SMILES.

The test system of test [1] is HSP17.6C-C1 of Arabidopsis thaliana. Put plainly: HSP expression test (HSP17.6C-C1 upstream region linked to GUS, 4-MU production). Type of test: in vivo. On the set-up: key: 4-MU per plant divided by 4-MU of 50 μM geldanamycin positive control. The note with it: soaked 6 hours at 22° C., positive control 50 μM geldanamycin. On the procedure: First, a construct linked to β-glucuronidase (GUS) gene was introduced to 1 kb upstream of HSP17.6C-C1 of Arabidopsis thaliana (the family Brassicaceae) to prepare a mutant. Each naphthoquinone compound (shown in Table 1) dissolved in DMSO was diluted to 1 μM, 10 μM, 100 μM, or 1000 μM (final concentration) with deionized water to prepare a test solution of each example (final concentration of DMSO: 1.0% by volume). A 50 μM geldanamycin solution was similarly prepared as a positive control.
Next, two individuals of 7-day-old Arabidopsis thaliana mutants grown in a ⅕ MS medium were soaked in 300 μL of the test solution of each example or the positive control at 22° C. for 6 hours. The Arabidopsis thaliana was washed with deionized water, then soaked in 200 μL of a 4-methylumbelliferyl-β-D-glucuronide hydrate solution containing a surfactant, and incubated at 22° C. for 16 hours in the dark. The fluorescence intensity of the supernatant was measured, and the amount of 4-methylumbelliferone (4-MU) production per plant was calculated. The calculated value of 4-MU was divided by the value of 4-MU of the positive control to calculate a ratio vs. positive control. A higher numerical value means that HSP was expressed at a larger level.
Each shikonin compound or alkannin compound (shown in Table 2) dissolved in DMSO was diluted to 1 μM, 10 μM, 100 μM, or 1000 μM (final concentration) with deionized water to prepare a test solution of each example (final concentration of DMSO: 1.0% by volume). A 50 μM geldanamycin solution was similarly prepared as a positive control. The other test procedures were performed in the same way as in Test Example 1. The calculated value of 4-MU was divided by the value of 4-MU of the positive control to calculate a ratio vs. positive control. […]

In test [2] the test system is maize. Put plainly: Drought tolerance improvement test of maize. Type of test: in vivo. The note with it: 10 μM, 2 mL/cell; 19 days without water, counted 5 days after water addition.
Description: Four parts each involving 9 cells (3×3) were cut out of a 72-cell tray. Seedling soil was placed therein, and water was added. 4 seeds of maize were seeded per cell. The temperature was set to 20° C. using a plant growth chamber, followed by cultivation under 16-hour light and 8-hour dark conditions. After budding, each naphthoquinone compound dissolved in DMSO was diluted to 10 μM (final concentration) with deionized water to prepare a test solution of each example (final concentration of DMSO: 1.0% by volume). Each test solution was sprayed to leaf surface in one of the cell trays. The volume of the test solution sprayed was set to 2 mL/cell. The same volume of water was sprayed to the other cell tray and used as a control. After the spraying, cultivation was continued without the addition of water. 19 days after the spraying, water was added to the soil. 5 days after the water addition, the number of maize survivors was counted and divided by the initial number of growing plants to calculate a survival rate (%).
Test [3] concerns maize. Description: Salt tolerance improvement test of maize. Type of test: in vivo. The note with it: 10 μM, 2 mL/cell; 1.0% NaCl five times every two days; fresh weight. The protocol:
(§1) Two parts each involving 9 cells (3×3) were cut out of a 72-cell tray. Seedling soil was placed therein, and water was added. 4 seeds of maize were seeded per cell. The temperature was set to 20° C. using a plant growth chamber, followed by cultivation under 16-hour light and 8-hour dark conditions. After budding, Shikonix Liquid (BG) (manufactured by Ichimaru Pharcos Co., Ltd.) was diluted 500-fold and sprayed as the Lithospermi radix extract to leaf surface in one of the cell trays. The volume of the Shikonix Liquid sprayed was set to 2 mL/cell. The same volume of water was sprayed to the other cell tray and used as a control. Two days later, a 1.0% NaCl solution was prepared and absorbed from the underside of each cell tray. The NaCl solution treatment was performed five times every two days. The above-ground parts were cut off, and their fresh weights were measured. An average value (g/plant) was calculated.
as §1, with “Four parts” for “Two parts”, “budding, each naphthoquinone compound dissolved in DMSO” for “budding, Shikonix Liquid (BG) (manufactured by Ichimaru Pharcos Co., Ltd.)”, “diluted to 10 μM (final concentration) with deionized water to prepare a test solution of each example (final concentration of DMSO: 1.0% by volume). Each test solution was” for “diluted 500-fold and”, “sprayed” for “sprayed as the Lithospermi radix extract”, “the test solution” for “the Shikonix Liquid”

In test [4] the test system is Arabidopsis thaliana. Put plainly: Heat tolerance induction test based on chlorophyll concentration. Type of test: in vivo. To be noted: 50 μM in medium; heat-treated at 44° C. for 1 hour; 3 days culture after. The protocol: A ⅕ MS medium was prepared in a 6-well plate, and filter paper was placed thereon. 12 individuals of wild-type Arabidopsis thaliana were seeded per well and grown at 22° C. for 7 days in a plant incubator under 16-hour light and 8-hour dark conditions. Next, the naphthoquinone compound of each example (shown in Table 3) dissolved in DMSO was added to a ⅕ MS medium, and each medium (final concentration: 50 μM) was prepared in a 6-well plate (final concentration of DMSO: 1.0% by volume). A medium containing 1.0% by volume of DMSO was used as a control.
The Arabidopsis thaliana grown for 7 days in the 6-well plate was transplanted, together with the filter paper, to the medium containing the compound and cultured for 1 day in a plant incubator. The plate was placed in a plastic bag and heat-treated at 44° C. for 1 hour in a water bath. After the heat treatment, culture was performed for 3 days in a plant incubator. The leaves of 4 Arabidopsis thaliana individuals were cut out, and chlorophyll was extracted with 300 μL of ethanol. The absorbance of each extract was measured at 649 nm and 665 nm, and the chlorophyll concentration (mg/L) was calculated. A higher chlorophyll concentration means that heat tolerance is better.
The shikonin compound of each example (shown in Table 4) dissolved in DMSO was added to a ⅕ MS medium, and each medium (final concentration: 50 μM) was prepared in a 6-well plate (final concentration of DMSO: 1.0% by volume). A medium containing 1% by volume of DMSO was used as a control. The other test procedures were performed in the same way as in Test Example 3.
The Lithospermi radix extract used was Shikonix Liquid (BG) (trade name, manufactured by Ichimaru Pharcos Co., Ltd.) containing a Lithospermum erythrorhizon root extract. The Shikonix Liquid contained, as major components, shikonin compounds such as acetylshikonin, β-hydroxyisovalerylshikonin, and isobutyrylshikonin. The Shikonix Liquid also contained, as additional minor components, α-methyl-n-butylshikonin, β,β-dimethylacrylshikonin, isovalerylshikonin, and shikonin.
The Shikonix Liquid (BG) was added at a dilution ratio of 150-fold to a ⅕ MS medium. The same amount of water was added as a control. ThermoZyme (manufactured by Fujimikogyo Co., Ltd.) was added at a dilution ratio of 150-fold as a positive control (Reference Example). The other test procedures were performed in the same way as in Test Example 3.

Test [5] concerns sprouted alfalfa. Put plainly: Spindly growth suppression test of seedling. Type of test: in vivo, Medicago sativa. To be noted: 50 μL sprayed per individual, 10 days at 25° C. On the procedure:
A spindly growth suppression test was conducted using sprouted alfalfa as a seedling and naphthoquinone compounds as quinone compounds. First, just-sprouted alfalfa (Medicago sativa of the family Leguminosae) was transplanted to a plastic cup containing vermiculite. Each naphthoquinone compound (shown in Table 5) dissolved in DMSO was diluted to 100 μM or 1000 μM (final concentration) with deionized water to prepare a test solution of each example (final concentration of DMSO: 1.0% by volume). An aqueous solution containing 1.0% by volume of DMSO was used as a test solution of a control. 50 μL of the test solution was sprayed per alfalfa individual. Then, cultivation was performed for 10 days in an incubator of 25° C., followed by hypocotyl length measurement.

On to `O=C1C(Cl)=C(Cl)C(=O)c2c(O)ccc(O)c21` [Example 7, 2,3-Dichloro-5,8-dihydroxy-1,4-naphthoquinone], for which the “Ratio of 4-MU amount vs. positive control” value in test [1] (1 μM) was found to be 0.80; in test [1] (10 μM) it was 5.91; in test [1] (100 μM), 1.72; in test [1] (1000 μM), 0.95. The same compound came in with a Survival rate in test [2] of 88%. Further, the Above-ground part weight in test [3] is recorded as 0.677 g/plant. This compound showed a Chlorophyll concentration in test [4] of 6.12 mg/L. Moreover, the values for the Hypocotyl length in test [5] (100 μM) and in test [5] (1000 μM) were 18.1 mm and 14.6 mm, respectively.
For `O=C1C(Cl)=C(Cl)C(=O)c2ccccc21` [Example 6, 2,3-Dichloro-1,4-naphthoquinone], the “Ratio of 4-MU amount vs. positive control” value in test [1] (1 μM) came to 0.47; in test [1] (10 μM), 5.12; in test [1] (100 μM), 1.86; in test [1] (1000 μM), 1.16. The Survival rate in test [2] worked out at 53%. In addition, in test [3], the Above-ground part weight was determined as 0.726 g/plant. For the same compound, the Chlorophyll concentration in test [4] is on record as 6.21 mg/L.
For `O=C1C=CC(=O)c2c(O)ccc(O)c21` [Example 5, 5,8-Dihydroxy-1,4-naphthoquinone], the “Ratio of 4-MU amount vs. positive control” value was found to be 0.48 in test [1] (1 μM), 2.49 in test [1] (10 μM), 1.96 in test [1] (100 μM) and 0.78 in test [1] (1000 μM). In test [2], the Survival rate was 92%. Moreover, in test [3], the Above-ground part weight is listed as 0.653 g/plant. Besides, the Chlorophyll concentration in test [4] was determined as 6.66 mg/L. Besides, the Hypocotyl length in test [5] (100 μM) was 14.6 mm; in test [5] (1000 μM), 15.2 mm.
